Data on 2 molecules can be found in patent US4593017A, “Methods of treating patients using a pharmaceutical preparation containing an α-endorfine fragment” (Akzo N.V., priority 1982, dated 1986).

Where a SMILES comes first, the peptide text is derived from it.

For assay [1] the following is noted: pole-jumping test; delaying extinction of conditioned avoidance behavior; Pharmac. Ther. 16, 67, 1982; cited from earlier work.
A further assay deals with rats. In words: Apomorphine induced stereotyped sniffing. As to conditions: for (Stereotyped) sniffing: after 1 h apomorphine 250 μg/kg s.c., tested 20 min later, measured for 4 min. Type of assay: in vivo. On the procedure: Subcutaneous treatment of rats with apomorphine (250 μg/kg) elicits hyperlocomotion and especially stereotyped sniffing behavoir. Increase of this stereotyped sniffing by pretreatment with the drug to be tested in considered to be an indication for dopaminergic activity.
Groups of rats were subcutaneously injected with placebo (0.5 ml saline), (2-9)-α-endorfine (50 μg) or (3-9)-α-endorfine (50 μg) and after 1 h. with apomorphine (250 μg/kg). An additional group of rats received two placebo (0.5 ml saline) injections. Twenty minutes after the last injection the rats were tested in a small open field and the duration of stereotyped sniffing was measured for 4 min.

The subject of assay [2] is AVP (arg-vasopressin) levels of eye plexus plasma. The assay is described as follows: Vasopressin release: AVP levels of eye plexus plasma (RIA). Type of assay: in vivo, Female Wistar rats. The following applies: 10 μg per rat subcutaneously. On the procedure: The effect of (2-9)-α-endorfine on AVP (arg-vasopressin) levels of eye plexus plasma was tested.
Female Wistar rats (140-160 g) were anaesthetized with ether for a strictly controlled period of 45 seconds. Samples of eye plexus blood were taken and stored in cooled plastic tubes to which heparin was added. The tubes were centrifuged at 4° C. in order to obtain the plasma. The immunoreactive AVP was directly measured in 20 μl of eye plexus plasma with the aid of RIA (radio-immuno-assay) methods.
The rats were treated with placebo or with 10 μg of (2-9)-α-endorfine per rat, injected subcutaneously.

On to `CSCC[C@H](NC(=O)[C@H](Cc1ccccc1)NC(=O)CNC(=O)CN)C(=O)N[C@H](C(=O)N[C@@H](CO)C(=O)N[C@@H](CCC(=O)O)C(=O)N[C@@H](CCCCN)C(=O)O)[C@@H](C)O` [(2-9)-α-endorfine, H-Gly-Gly-L-Phe-L-Met-L-Thr-L-Ser-L-Glu-L-Lys-OH] (H-GGFMTSEK-OH), for which the “times less active than α-endorfine” value in assay [1] is recorded as 10 times. In the assay on rats (pretreatment 50 μg s.c.), the “(Stereotyped) sniffing” value was 158.0 s. Moreover, the “potentiation of apomorphine-induced stereotyped sniffing” value in the assay with rats (pretreatment 50 μg, apomorphine 250 μg/kg s.c.) is recorded as “potentiated”. Also, the AVP levels in assay [2] (2 minutes after injection) turned out to be 667 pg/mL; in assay [2] (5 minutes after injection), 92 pg/mL; in assay [2] (10 minutes after injection), 78 pg/mL.
As for `CN1CCc2cccc3c2[C@H]1Cc1ccc(O)c(O)c1-3` [apomorphine, reference compound], the “(Stereotyped) sniffing” value in the assay on rats (placebo (0.5 ml saline) pretreatment) is 121.4 s.
